Measurements published in patent US11427549B2, “Pyrimidinyloxy benzo-fused compounds as herbicides” (FMC Corporation, priority 2017, dated 2022).

Legend:
[1] = test system: wheat (Triticum aestivum); experiment: Test A postemergence, wheat; format: in vivo; conditions: Triticum aestivum, post-emergence, 240 h, 0 to 100 scale (0 no effect, 100 complete control), read-out: Plant response rating, Wheat; for plant injury at 31 g/ha: 31 g ai/ha; for plant injury at 125 g/ha: 125 g ai/ha
[2] = test system: kochia (Kochia scoparia); experiment: Test A preemergence, kochia; format: in vivo; conditions: Bassia scoparia, pre-emergence, 240 h, 0 to 100 scale (0 no effect, 100 complete control), read-out: Plant response rating, Kochia; for pest or weed control at 31 g/ha: 31 g ai/ha; for pest or weed control at 125 g/ha: 125 g ai/ha
[3] = test system: galium (catchweed bedstraw, Galium aparine); experiment: Test A postemergence, galium; format: in vivo; conditions: Galium, post-emergence, 240 h, 0 to 100 scale (0 no effect, 100 complete control), read-out: Plant response rating, Galium; for pest or weed control at 31 g/ha: 31 g ai/ha; for pest or weed control at 125 g/ha: 125 g ai/ha
[4] = test system: corn (Zea mays); experiment: Test A postemergence, corn; format: in vivo; conditions: Zea mays, post-emergence, 240 h, 0 to 100 scale (0 no effect, 100 complete control); for Corn plant response rating (crop injury, 0 = no effect, 100 = complete kill) at 31 g/ha: 31 g ai/ha; for Corn plant response rating (crop injury, 0 = no effect, 100 = complete kill) at 125 g/ha: 125 g ai/ha
[5] = test system: ryegrass, Italian (Italian ryegrass, Lolium multiflorum); experiment: Test A postemergence, ryegrass, Italian; format: in vivo; conditions: Lolium multiflorum, post-emergence, 240 h, 0 to 100 scale (0 no effect, 100 complete control), read-out: Plant response rating, Ryegrass, Italian; for pest or weed control at 31 g/ha: 31 g ai/ha; for pest or weed control at 125 g/ha: 125 g ai/ha
[6] = test system: ducksalad (Heteranthera limosa); experiment: Test B flooded paddy test, ducksalad; conditions: Heteranthera limosa, read-out: Plant response rating, Ducksalad (0 to 100 scale, 0 is no effect, 100 is complete control)
[7] = test system: rice (Oryza sativa); experiment: Test B flooded paddy test, rice; conditions: Oryza sativa, read-out: Plant response rating, Rice (0 to 100 scale, 0 is no effect, 100 is complete control)
[8] = test system: ryegrass, Italian (Italian ryegrass, Lolium multiflorum); experiment: Test A preemergence, ryegrass, Italian; format: in vivo; conditions: Lolium multiflorum, pre-emergence, 240 h, 0 to 100 scale (0 no effect, 100 complete control), read-out: Plant response rating, Ryegrass, Italian; for pest or weed control at 31 g/ha: 31 g ai/ha; for pest or weed control at 125 g/ha: 125 g ai/ha
[9] = test system: pigweed (Amaranthus retroflexus); experiment: Test A preemergence, pigweed; format: in vivo; conditions: Amaranthus retroflexus, pre-emergence, 240 h, 0 to 100 scale (0 no effect, 100 complete control), read-out: Plant response rating, Pigweed; for pest or weed control at 31 g/ha: 31 g ai/ha; for pest or weed control at 125 g/ha: 125 g ai/ha
[10] = test system: kochia (Kochia scoparia); experiment: Test A postemergence, kochia; format: in vivo; conditions: Bassia scoparia, post-emergence, 240 h, 0 to 100 scale (0 no effect, 100 complete control), read-out: Plant response rating, Kochia; for pest or weed control at 31 g/ha: 31 g ai/ha; for pest or weed control at 125 g/ha: 125 g ai/ha
[11] = test system: blackgrass (Alopecurus myosuroides); experiment: Test A postemergence, blackgrass; format: in vivo; conditions: Alopecurus myosuroides, post-emergence, 240 h, 0 to 100 scale (0 no effect, 100 complete control), read-out: Plant response rating, Blackgrass; for pest or weed control at 31 g/ha: 31 g ai/ha; for pest or weed control at 125 g/ha: 125 g ai/ha
[12] = test system: pigweed (Amaranthus retroflexus); experiment: Test A postemergence, pigweed; format: in vivo; conditions: Amaranthus retroflexus, post-emergence, 240 h, 0 to 100 scale (0 no effect, 100 complete control), read-out: Plant response rating, Pigweed; for pest or weed control at 31 g/ha: 31 g ai/ha; for pest or weed control at 125 g/ha: 125 g ai/ha
[13] = test system: ragweed (common ragweed, Ambrosia elatior); experiment: Test A preemergence, ragweed; format: in vivo; conditions: Ambrosia artemisiifolia, pre-emergence, 240 h, 0 to 100 scale (0 no effect, 100 complete control), read-out: Plant response rating, Ragweed; for pest or weed control at 31 g/ha: 31 g ai/ha; for pest or weed control at 125 g/ha: 125 g ai/ha
[14] = test system: barnyardgrass (Echinochloa crus-galli); experiment: Test A preemergence, barnyardgrass; format: in vivo; conditions: Echinochloa crus-galli, pre-emergence, 240 h, 0 to 100 scale (0 no effect, 100 complete control), read-out: Plant response rating, Barnyardgrass; for pest or weed control at 31 g/ha: 31 g ai/ha; for pest or weed control at 125 g/ha: 125 g ai/ha
[15] = test system: ragweed (common ragweed, Ambrosia elatior); experiment: Test A postemergence, ragweed; format: in vivo; conditions: Ambrosia artemisiifolia, post-emergence, 240 h, 0 to 100 scale (0 no effect, 100 complete control), read-out: Plant response rating, Ragweed; for pest or weed control at 31 g/ha: 31 g ai/ha; for pest or weed control at 125 g/ha: 125 g ai/ha
[16] = test system: barnyardgrass (Echinochloa crus-galli); experiment: Test B flooded paddy test, barnyardgrass; conditions: Echinochloa crus-galli, read-out: Plant response rating, Barnyardgrass (0 to 100 scale, 0 is no effect, 100 is complete control)
[17] = test system: barnyardgrass (Echinochloa crus-galli); experiment: Test A postemergence, barnyardgrass; format: in vivo; conditions: Echinochloa crus-galli, post-emergence, 240 h, 0 to 100 scale (0 no effect, 100 complete control), read-out: Plant response rating, Barnyardgrass; for pest or weed control at 31 g/ha: 31 g ai/ha; for pest or weed control at 125 g/ha: 125 g ai/ha

Compound | plant injury at 31 g/ha [1] [%] | plant injury at 125 g/ha [1] [%] | pest or weed control at 31 g/ha [2] [%] | pest or weed control at 125 g/ha [2] [%] | pest or weed control at 31 g/ha [3] [%] | pest or weed control at 125 g/ha [3] [%] | Corn plant response rating (crop injury, 0 = no effect, 100 = complete kill) at 31 g/ha [4] [%] | Corn plant response rating (crop injury, 0 = no effect, 100 = complete kill) at 125 g/ha [4] [%] | pest or weed control at 31 g/ha [5] [%] | pest or weed control at 125 g/ha [5] [%] | pest or weed control at 250 g/ha [6] [%] | plant injury at 250 g/ha [7] [%] | pest or weed control at 31 g/ha [8] [%] | pest or weed control at 125 g/ha [8] [%] | pest or weed control at 31 g/ha [9] [%] | pest or weed control at 125 g/ha [9] [%] | pest or weed control at 31 g/ha [10] [%] | pest or weed control at 125 g/ha [10] [%] | pest or weed control at 31 g/ha [11] [%] | pest or weed control at 125 g/ha [11] [%] | also measured
O=C1O[C@H](CCCC(F)(F)F)c2c(Oc3ncc(Cl)cn3)cccc21 [Compound 3, (3R)-4-[(5-Chloro-2-pyrimidinyl)oxy]-3-(4,4,4-trifluorobutyl)-1-(3H)-isobenzofuranone] | 60 | 90 | 80 | 100 | 100 | 100 | 50 | 80 | 40 | 100 | 90 | 60 | 70 | 100 | 100 | 100 | 90 | 100 | 80 | 100 | pest or weed control at 31 g/ha [12]: 100%; pest or weed control at 125 g/ha [12]: 100%; pest or weed control at 31 g/ha [13]: 0%; pest or weed control at 125 g/ha [13]: 0%; pest or weed control at 31 g/ha [14]: 90%; pest or weed control at 125 g/ha [14]: 100%; pest or weed control at 31 g/ha [15]: 10%; pest or weed control at 125 g/ha [15]: 60%; pest or weed control at 250 g/ha [16]: 60%; pest or weed control at 31 g/ha [17]: 30%; pest or weed control at 125 g/ha [17]: 90%
O=C1OC(CCC(F)(F)F)c2c(Oc3ncc(Cl)cn3)cccc21 (stereo not shown) [Compound 4, 4-[(5-Chloro-2-pyrimidinyl)oxy]-3-(3,3,3-trifluoropropyl)-1(3H)-isobenzofuranone] | 20 | 80 | 90 | 100 | 100 | 100 | 30 | 80 | 20 | 90 | 100 | 45 | 20 | 100 | 100 | 100 | 90 | 100 | 40 | 90 | pest or weed control at 31 g/ha [12]: 90%; pest or weed control at 125 g/ha [12]: 100%; pest or weed control at 31 g/ha [13]: 20%; pest or weed control at 125 g/ha [13]: 70%; pest or weed control at 31 g/ha [14]: 70%; pest or weed control at 125 g/ha [14]: 100%; pest or weed control at 31 g/ha [15]: 0%; pest or weed control at 125 g/ha [15]: 80%; pest or weed control at 250 g/ha [16]: 35%; pest or weed control at 31 g/ha [17]: 30%; pest or weed control at 125 g/ha [17]: 90%
O=C1COC(CCCC(F)(F)F)c2c(Oc3ncc(Cl)cn3)cccc21 (stereo not shown) [Compound 5, 8-[(5-Chloro-2-pyrimidinyl)oxy]-1-(4,4,4-trifluorobutyl)-1H-2-benzopyran-4(3H)-one] | 0 | 0 | 0 | 0 | 0 | 30 | 0 | 10 | 0 | 10 | 60 | 40 | 0 | 0 | 0 | 90 | 0 | 10 | 10 | 10 | pest or weed control at 31 g/ha [12]: 10%; pest or weed control at 125 g/ha [12]: 90%; pest or weed control at 31 g/ha [13]: 0%; pest or weed control at 125 g/ha [13]: 0%; pest or weed control at 31 g/ha [14]: 0%; pest or weed control at 125 g/ha [14]: 0%; pest or weed control at 31 g/ha [15]: 0%; pest or weed control at 125 g/ha [15]: 0%; pest or weed control at 250 g/ha [16]: 0%; pest or weed control at 31 g/ha [17]: 0%; pest or weed control at 125 g/ha [17]: 10%
FC(F)(F)CCCC1OCc2cccc(Oc3ncc(Cl)cn3)c21 (stereo not shown) [Compound 7, 5-chloro-2-[[1,3-dihydro-3-(4,4,4-trifluorobutyl)-4-isobenzofuranyl]oxy]-pyrimidine] | 10 | 30 | 0 | 100 | 50 | 100 | 20 | 40 | 20 | 60 | 100 | 40 | 0 | 50 | 20 | 100 | 90 | 100 | 10 | 70 | pest or weed control at 31 g/ha [12]: 80%; pest or weed control at 125 g/ha [12]: 100%; pest or weed control at 31 g/ha [13]: 0%; pest or weed control at 125 g/ha [13]: 0%; pest or weed control at 31 g/ha [14]: 20%; pest or weed control at 125 g/ha [14]: 90%; pest or weed control at 31 g/ha [15]: 0%; pest or weed control at 125 g/ha [15]: 0%; pest or weed control at 250 g/ha [16]: 40%; pest or weed control at 31 g/ha [17]: 20%; pest or weed control at 125 g/ha [17]: 60%
